Assay results from PubChem BioAssay (NCI).
Values joined by “and” are separate entries in the source; they are usually repeats but may differ in a detail not shown here. Identical values can stand only once.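 Five compound concentrations were applied to cells in 96-well plates for 48 hours; endpoints were derived by simple linear interpolation of the resulting dose-response curve. The concentration for 50% growth inhibition is given as GI50. TGI: total growth inhibition.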

Legend:
Experiment in all cases: NCI anticancer screen, dose series, 48 h
CCRF-CEM leukemia = tested on: CCRF-CEM leukemia
LOX IMVI melanoma = tested on: LOX IMVI melanoma
SF-268 CNS = tested on: SF-268 CNS
HCT-116 colon = tested on: HCT-116 colon
MALME-3M melanoma = tested on: MALME-3M melanoma
SK-OV-3 ovarian = tested on: SK-OV-3 ovarian
A498 renal = tested on: A498 renal
RPMI-8226 leukemia = tested on: RPMI-8226 leukemia
EKVX NSCLC = tested on: EKVX NSCLC
RXF 393 renal = tested on: RXF 393 renal

SMILES | GI50 (CCRF-CEM leukemia) | TGI (CCRF-CEM leukemia) [µM] | GI50 (LOX IMVI melanoma) | TGI (LOX IMVI melanoma) | GI50 (SF-268 CNS) | TGI (SF-268 CNS) | GI50 (HCT-116 colon) | TGI (HCT-116 colon) | GI50 (MALME-3M melanoma) | TGI (MALME-3M melanoma) | GI50 (SK-OV-3 ovarian) | TGI (SK-OV-3 ovarian) | GI50 (A498 renal) | TGI (A498 renal) | GI50 (RPMI-8226 leukemia) | TGI (RPMI-8226 leukemia) | GI50 (EKVX NSCLC) | TGI (EKVX NSCLC) | GI50 (RXF 393 renal) | TGI (RXF 393 renal)
O=C(Nc1cc(Cl)ccc1O)c1ccc(Nc2ccnc(C(F)(F)F)c2)cc1 | 0.807 µM | 5.7 | 3.09 µM | 76.9 µM | 3.99 µM | > 100 µM | 2.9 µM | 60.8 µM | 1.79 µM | 5.49 µM | 2.32 µM | 7.11 µM | 2.39 µM | 7.17 µM | 1.25 µM | 3.83 µM | 2.84 µM | 9.63 µM | 5.71 µM | > 100 µM
Cc1ccccc1C1=[N+]([O-])c2ccc(Cl)cc2C1=O |  | 12.5 |  | 20.2 µM |  | 33.1 µM |  | 19.5 µM |  | 30.6 µM |  | 52.6 µM |  | 71.4 µM |  | 9.37 µM |  | 25 µM |  | 34.9 µM
COc1ccc(-c2cnnn2-c2nonc2-n2cccc2)cc1 | 0.228 µM | 3.85 | 0.594 µM | 19 µM | 0.52 µM | 27.6 µM | 0.354 µM |  | 0.382 µM | 27.6 µM | 0.319 µM | 4.28 µM | 0.183 µM | 0.893 µM | 0.353 µM | 5.02 µM | 0.547 µM | > 94.7 µM | 0.138 µM | 0.609 µM
COc1ccc(-c2ccc3c(N4CCOC[C@@H]4C)nc(N4CCOC[C@@H]4C)nc3n2)cc1CO | 0.0102 µM and 0.059 µM | > 100 | 0.00476 µM and 0.028 µM | > 100 µM | 0.00537 µM and 0.0359 µM | > 3.31 µM and 51.1 µM | 0.00858 µM and 0.0734 µM | > 100 µM | 0.00289 µM and < 0.01 µM | 0.0203 µM and 0.0392 µM | 0.00324 µM and 0.0138 µM | 0.0479 µM and 0.116 µM | 0.00121 µM and < 0.01 µM | 0.00302 µM and < 0.0234 µM | 0.00363 µM and 0.0281 µM |  | 0.00504 µM and 0.0229 µM | 0.113 µM and 0.564 µM | 0.00244 µM and < 0.0105 µM | 0.00676 µM and 0.0643 µM
COc1cccc(/C=N/[N-]C(=O)c2ccncc2)c1[O-].COc1cccc(/C=N/[N-]C(=O)c2ccncc2)c1[O-].[O]=[U](=[O])([OH2+])[OH2+] | 2.06 µM | > 30.7 | 4.94 µM | > 100 µM | 4.83 µM | 49.4 µM | 4.8 µM | > 100 µM | 12.8 µM | > 66.3 µM | 12.2 µM | 73.2 µM | 21.5 µM | 47.7 µM | 4.4 µM | 48 µM | 2.86 µM | > 100 µM | 6.11 µM | 25.3 µM
CO[C@H]1Nc2c(ccc(C)c2O)C(=O)N2C=C(/C=C/C(N)=O)C[C@@H]12 |  | > 50.6 |  | 1.29 µM |  | 0.411 µM |  |  |  | 0.0591 µM |  | 3.72 µM |  | 0.495 µM |  | 8.51 µM |  | 1.03 µM |  | 0.233 µM
O=C1CCCN1c1ccccc1I(=O)=O | > 100 µM | > 100 | > 100 µM | > 100 µM | > 100 µM | > 100 µM |  |  | > 100 µM | > 100 µM | > 100 µM | > 100 µM | > 100 µM | > 100 µM | > 100 µM | > 100 µM | > 100 µM | > 100 µM | > 100 µM | > 100 µM
CC(C)=C1CCC(CN(C)C)C1=O (centres undefined) |  | 27.7 |  |  |  | 97.3 µM |  | 30.3 µM |  | 30.2 µM |  |  |  | 36.9 µM |  |  |  | 31.9 µM |  | 33.5 µM
COC(=O)/C(=N/O)C(C(=O)C=C(C)C)C(=O)C(=O)Nc1nc2ccc([N+](=O)[O-])cc2s1 (centres undefined) |  | 74.7 |  | 93.1 µM |  | 99.2 µM |  | > 100 µM |  | > 100 µM |  | 63 µM |  | 31 µM |  | > 100 µM |  | 57.8 µM |  | 
CC(C)CC(C/C=C1/CC(CO)(COC(=O)C(C)(C)C)OC1=O)CC(C)C (centres undefined) |  | 18.4 | 12.3 µM and 1.76 µM | 27.9 µM and 21.9 µM |  | 26.4 µM and 25.4 µM |  | 29.5 µM and 30.9 µM |  |  |  | 39.7 µM |  | 21.7 µM and 22.2 µM | 17.1 µM and 3.85 µM | 54.5 µM and 21.2 µM | 1.25 µM and 0.247 µM | 10.7 µM and 7 µM |  | 43.8 µM and 32.9 µM
CCCC(=O)C1=C(O)C(Cc2c(O)c(C)c(O)c(C(=O)CCC)c2O)=C(O)C(C)(C)C1=O |  | 20 |  | > 50 µM |  | > 50 µM |  | > 50 µM |  |  |  | > 50 µM |  | > 50 µM |  | > 50 µM |  | > 50 µM |  | > 50 µM
COC(=O)C(=O)C(C(C)=O)C(=O)NCc1ccc(OC)c(OC)c1 (centres undefined) |  | > 100 |  | > 100 µM |  | > 100 µM |  | > 100 µM |  | > 100 µM |  | > 100 µM |  | > 100 µM |  |  |  | > 100 µM |  | > 100 µM
CCc1ccc2c(c1)C(=O)c1c-2n(CCCN=[N+]=[N-])c(=O)c2cc([N+](=O)[O-])ccc12 | > 50 µM | > 50 | > 50 µM | > 50 µM | > 50 µM | > 50 µM | > 50 µM | > 50 µM | > 50 µM | > 50 µM |  |  | > 50 µM | > 50 µM | > 50 µM | > 50 µM | > 50 µM | > 50 µM | > 50 µM | > 50 µM
COC(c1ccc(C(C)(C)C)cc1)(c1ccc(C(C)(C)C)cc1)c1ccc(C(C)(C)C)cc1 |  | > 100 |  | > 100 µM |  | > 100 µM |  | > 100 µM |  | > 100 µM |  |  |  | > 100 µM |  | > 100 µM |  | > 100 µM |  | 
Cc1ccc(C)c(N2C/C(=N\NC(=O)CC#N)C(c3nc4ccccc4s3)C(=O)C2=O)c1 (centres undefined) |  | > 100 |  |  |  | > 100 µM |  | > 100 µM |  | > 100 µM |  | > 100 µM |  | > 100 µM |  |  |  | > 100 µM |  | > 100 µM
Cc1cccc(C2=C/C(=C(\SS/C(C(=O)c3ccc(OCC(=O)O)c(Cl)c3Cl)=C3\C=C(c4cccc(C)c4)SS3)C(=O)c3ccc(OCC(=O)O)c(Cl)c3Cl)SS2)c1 |  | 19.4 |  | 18 µM |  | 39.6 µM |  | > 53.8 µM |  | 74.9 µM |  | > 100 µM |  | 49.4 µM |  | 41.4 µM |  | > 100 µM |  | 
